In patent publication US20120029187A1, “HALOALKYLSULFONANILIDE DERIVATIVE” (Nissan Chemical Industries, Ltd., priority 2009, published 2012):

Columns and labels:
Format in all cases: in vivo
[1] = system: barnyardgrass; assay: Test Example 3: herbicidal effects in soil treatment; settings: dose 6.3 g/a
Outline: (§1)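 Seeds were sown in sterilized diluvial soil and covered with about 1.5 cm of soil. Compounds, formulated as emulsifiable concentrates and diluted with water, were sprayed evenly over the soil surface at set doses in g/a. Herbicidal effect was scored on a rating scale three weeks later.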

[2] = system: Italian ryegrass; assay: as above; settings: dose 6.3 g/a
Outline: as §1

[3] = system: velvetleaf; assay: as above; settings: dose 6.3 g/a
Outline: as §1

[4] = system: posumbu knotweed; assay: as above; settings: dose 6.3 g/a
Outline: as §1

[5] = system: common lambsquater; assay: as above; settings: dose 6.3 g/a
Outline: as §1

[6] = system: wild oat; assay: as above; settings: dose 6.3 g/a
Outline: as §1

[7] = system: common chickweed; assay: as above; settings: dose 6.3 g/a
Outline: as §1

[8] = system: large crabgrass; assay: as above; settings: dose 6.3 g/a
Outline: as §1

[9] = system: common ragweed; assay: as above; settings: dose 6.3 g/a
Outline: as §1

[10] = system: water foxtail; assay: as above; settings: dose 6.3 g/a
Outline: as §1

[11] = system: redroot pigweed; assay: as above; settings: dose 6.3 g/a
Outline: as §1

[12] = system: giant foxtail; assay: as above; settings: dose 6.3 g/a
Outline: as §1

[13] = system: barnyardgrass; assay: Test Example 1: herbicidal effects in preemergence treatment under submerged conditions; settings: dose 2.52 g/a
Outline: (§2)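 Submerged conditions, 4 cm water over alluvial soil. Weeds sown and 2.5-leaf rice transplanted; compound applied preemergence to water surface, doses in g per are. Greenhouse, 25 to 30° C., three weeks, then 0–5 mortality rating.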

[14] = system: bulrush; assay: as above; settings: dose 2.52 g/a
Outline: as §2

[15] = system: ducksalad; assay: as above; settings: dose 2.52 g/a
Outline: as §2

[16] = system: barnyardgrass; assay: Test Example 4: herbicidal effect in foliage treatment; settings: dose 6.3 g/a, three weeks after application
Outline: (§3)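 Weeds and crops sown in sterilized diluvial soil under ~1.5 cm cover and grown in greenhouse at 25 to 30° C. At 14 days, water-diluted emulsifiable concentrate sprayed onto foliage at set doses (g/a); herbicidal effect scored on a rating scale three weeks after application.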

[17] = system: Italian ryegrass; assay: as above; settings: dose 6.3 g/a, three weeks after application
Outline: as §3

[18] = system: velvetleaf; assay: as above; settings: dose 6.3 g/a, three weeks after application
Outline: as §3

[19] = system: posumbu knotweed; assay: as above; settings: dose 6.3 g/a, three weeks after application
Outline: as §3

[20] = system: common lambsquater; assay: as above; settings: dose 6.3 g/a, three weeks after application
Outline: as §3

[21] = system: wild oat; assay: as above; settings: dose 6.3 g/a, three weeks after application
Outline: as §3

[22] = system: common chickweed; assay: as above; settings: dose 6.3 g/a, three weeks after application
Outline: as §3

[23] = system: large crabgrass; assay: as above; settings: dose 6.3 g/a, three weeks after application
Outline: as §3

[24] = system: common ragweed; assay: as above; settings: dose 6.3 g/a, three weeks after application
Outline: as §3

[25] = system: water foxtail; assay: as above; settings: dose 6.3 g/a, three weeks after application
Outline: as §3

[26] = system: beadstraw; assay: as above; settings: dose 6.3 g/a, three weeks after application
Outline: as §3

[27] = system: redroot pigweed; assay: as above; settings: dose 6.3 g/a, three weeks after application
Outline: as §3

[28] = system: giant foxtail; assay: as above; settings: dose 6.3 g/a, three weeks after application
Outline: as §3

[29] = system: barnyardgrass; assay: Test Example 2: herbicidal effects during the vegetation period under submerged conditions; settings: treatment during the vegetation period under submerged conditions; dose 2.52 g/a
Outline: (§4)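 Barnyardgrass, bulrush and ducksalad were co-sown in alluvial soil flooded to 4 cm and grown in a greenhouse at 25 to 30° C. At the 1- or 2-leaf stage, water-diluted emulsifiable concentrates went onto the water surface at set doses (g/a). Herbicidal effect was scored three weeks later on a graded scale.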

[30] = system: bulrush; assay: as above; settings: treatment during the vegetation period under submerged conditions; dose 2.52 g/a
Outline: as §4

[31] = system: ducksalad; assay: as above; settings: treatment during the vegetation period under submerged conditions; dose 2.52 g/a
Outline: as §4

[32] = system: transplanted rice; assay: Test Example 1: preemergence treatment under submerged conditions, effect on crop; settings: dose 2.52 g/a
Outline: as §2

CCOC(=O)N(c1ccccc1CN1CCOCC1=O)S(=O)(=O)C(F)(F)F [Compound I-2, 4-[2-(N-ethoxycarbonyl-N-trifluoromethanesulfonyl)aminobenzyl]-1,4-oxazinan-3-one]
A: barnyardgrass, herbicidal effect (evaluation scale 0-5) [1]: 5 (mortality of 90% or above (nearly complete death))
H: Italian ryegrass, herbicidal effect (evaluation scale 0-5) [2]: 5 (mortality of 90% or above (nearly complete death))
I: velvetleaf, herbicidal effect (evaluation scale 0-5) [3]: 5 (mortality of 90% or above (nearly complete death))
M: posumbu knotweed, herbicidal effect (evaluation scale 0-5) [4]: 5 (mortality of 90% or above (nearly complete death))
L: common lambsquater, herbicidal effect (evaluation scale 0-5) [5]: 5 (mortality of 90% or above (nearly complete death))
F: wild oat, herbicidal effect (evaluation scale 0-5) [6]: 3 (mortality of at least 40% and less than 70%)
N: common chickweed, herbicidal effect (evaluation scale 0-5) [7]: 5 (mortality of 90% or above (nearly complete death))
D: large crabgrass, herbicidal effect (evaluation scale 0-5) [8]: 5 (mortality of 90% or above (nearly complete death))
J: common ragweed, herbicidal effect (evaluation scale 0-5) [9]: 5 (mortality of 90% or above (nearly complete death))
G: water foxtail, herbicidal effect (evaluation scale 0-5) [10]: 5 (mortality of 90% or above (nearly complete death))
K: redroot pigweed, herbicidal effect (evaluation scale 0-5) [11]: 5 (mortality of 90% or above (nearly complete death))
E: giant foxtail, herbicidal effect (evaluation scale 0-5) [12]: 5 (mortality of 90% or above (nearly complete death))
A: barnyardgrass, herbicidal effect (evaluation scale 0-5) [13]: 5 (mortality of 90% or above (nearly complete death))
B: bulrush, herbicidal effect (evaluation scale 0-5) [14]: 5 (mortality of 90% or above (nearly complete death))
C: ducksalad, herbicidal effect (evaluation scale 0-5) [15]: 5 (mortality of 90% or above (nearly complete death))
A: barnyardgrass, herbicidal effect [16]: 5 (mortality of 90% or above (nearly complete death))
H: Italian ryegrass, herbicidal effect [17]: 4 (mortality of at least 70% and less than 90%)
I: velvetleaf, herbicidal effect [18]: 5 (mortality of 90% or above (nearly complete death))
M: posumbu knotweed, herbicidal effect [19]: 4 (mortality of at least 70% and less than 90%)
L: common lambsquater, herbicidal effect [20]: 4 (mortality of at least 70% and less than 90%)
F: wild oat, herbicidal effect [21]: 3 (mortality of at least 40% and less than 70%)
N: common chickweed, herbicidal effect [22]: 4 (mortality of at least 70% and less than 90%)
D: large crabgrass, herbicidal effect [23]: 5 (mortality of 90% or above (nearly complete death))
J: common ragweed, herbicidal effect [24]: 3 (mortality of at least 40% and less than 70%)
G: water foxtail, herbicidal effect [25]: 5 (mortality of 90% or above (nearly complete death))
O: beadstraw, herbicidal effect [26]: 5 (mortality of 90% or above (nearly complete death))
K: redroot pigweed, herbicidal effect [27]: 3 (mortality of at least 40% and less than 70%)
E: giant foxtail, herbicidal effect [28]: 5 (mortality of 90% or above (nearly complete death))
A: barnyardgrass, herbicidal effect (evaluation scale 0-5) [29]: 5 (mortality of 90% or above (nearly complete death))
B: bulrush, herbicidal effect (evaluation scale 0-5) [30]: 5 (mortality of 90% or above (nearly complete death))
C: ducksalad, herbicidal effect (evaluation scale 0-5) [31]: 5 (mortality of 90% or above (nearly complete death))
a: transplanted rice, effect on crop (evaluation scale 0-5) [32]: 1 (mortality of at least 5% and less than 20%)

CC(C)COC(=O)N(c1ccccc1CN1CCOCC1=O)S(=O)(=O)C(F)(F)F [Compound I-3]
A: barnyardgrass, herbicidal effect (evaluation scale 0-5) [1]: 5 (mortality of 90% or above (nearly complete death))
H: Italian ryegrass, herbicidal effect (evaluation scale 0-5) [2]: 5 (mortality of 90% or above (nearly complete death))
I: velvetleaf, herbicidal effect (evaluation scale 0-5) [3]: 5 (mortality of 90% or above (nearly complete death))
M: posumbu knotweed, herbicidal effect (evaluation scale 0-5) [4]: 3 (mortality of at least 40% and less than 70%)
L: common lambsquater, herbicidal effect (evaluation scale 0-5) [5]: 5 (mortality of 90% or above (nearly complete death))
F: wild oat, herbicidal effect (evaluation scale 0-5) [6]: 0 (mortality of less than 5% (almost ineffective))
N: common chickweed, herbicidal effect (evaluation scale 0-5) [7]: 5 (mortality of 90% or above (nearly complete death))
D: large crabgrass, herbicidal effect (evaluation scale 0-5) [8]: 5 (mortality of 90% or above (nearly complete death))
J: common ragweed, herbicidal effect (evaluation scale 0-5) [9]: 4 (mortality of at least 70% and less than 90%)
G: water foxtail, herbicidal effect (evaluation scale 0-5) [10]: 5 (mortality of 90% or above (nearly complete death))
K: redroot pigweed, herbicidal effect (evaluation scale 0-5) [11]: 3 (mortality of at least 40% and less than 70%)
E: giant foxtail, herbicidal effect (evaluation scale 0-5) [12]: 5 (mortality of 90% or above (nearly complete death))
A: barnyardgrass, herbicidal effect (evaluation scale 0-5) [13]: 5 (mortality of 90% or above (nearly complete death))
B: bulrush, herbicidal effect (evaluation scale 0-5) [14]: 5 (mortality of 90% or above (nearly complete death))
C: ducksalad, herbicidal effect (evaluation scale 0-5) [15]: 5 (mortality of 90% or above (nearly complete death))
A: barnyardgrass, herbicidal effect [16]: 5 (mortality of 90% or above (nearly complete death))
H: Italian ryegrass, herbicidal effect [17]: 3 (mortality of at least 40% and less than 70%)
I: velvetleaf, herbicidal effect [18]: 5 (mortality of 90% or above (nearly complete death))
M: posumbu knotweed, herbicidal effect [19]: 0 (mortality of less than 5% (almost ineffective))
L: common lambsquater, herbicidal effect [20]: 4 (mortality of at least 70% and less than 90%)
F: wild oat, herbicidal effect [21]: 0 (mortality of less than 5% (almost ineffective))
N: common chickweed, herbicidal effect [22]: 4 (mortality of at least 70% and less than 90%)
D: large crabgrass, herbicidal effect [23]: 5 (mortality of 90% or above (nearly complete death))
J: common ragweed, herbicidal effect [24]: 4 (mortality of at least 70% and less than 90%)
G: water foxtail, herbicidal effect [25]: 5 (mortality of 90% or above (nearly complete death))
O: beadstraw, herbicidal effect [26]: 4 (mortality of at least 70% and less than 90%)
K: redroot pigweed, herbicidal effect [27]: 2 (mortality of at least 20% and less than 40%)
E: giant foxtail, herbicidal effect [28]: 4 (mortality of at least 70% and less than 90%)
A: barnyardgrass, herbicidal effect (evaluation scale 0-5) [29]: 5 (mortality of 90% or above (nearly complete death))
B: bulrush, herbicidal effect (evaluation scale 0-5) [30]: 5 (mortality of 90% or above (nearly complete death))
C: ducksalad, herbicidal effect (evaluation scale 0-5) [31]: 5 (mortality of 90% or above (nearly complete death))
a: transplanted rice, effect on crop (evaluation scale 0-5) [32]: 0 (mortality of less than 5% (almost ineffective))
